From patent US12076307B2, “Compositions for prevention or treatment of acute radiation syndrome and other radiation exposure” (priority 2017, dated 2024)

Legend:
[1] = Plasma and lymphatic concentrations of EC-18 in rats after single oral administration; format: in vivo, rat; conditions: for AUC(0-t) / Cmax / Tmax / half-life: n=3
Procedure: After administering a single oral dose of 500 or 2000 mg/kg of EC-18 (vehicle: olive oil) to male SD rats, the EC-18 concentration in the sampled plasma and lymphatic fluid was measured to generate the values of PK parameters (Table 16). […] The rate of increase in plasma Cmax and AUClast was lower than the rate of increase of the administered dosage.

[2] = In vitro metabolic stability / metabolite screening, human liver microsomes; format: in vitro ADME; conditions: for Mean Peak Area in LC-RID: Human, N=2
Procedure: [^14C]EC-18 or the positive control (7-ethoxycoumarin; 7-EC) reacted with microsomes prepared from hepatocytes of rats, dogs, monkeys, and humans, with or without cofactors, for 60 and 120 min. Then, the residual EC-18 concentration over time was measured by LC-RID ([^14C]EC-18) or LC-MS/MS (7-EC) (FIG. 63 and FIG. 64).
Each test system was designed to examine phase 1 metabolic reaction (test system A), phase 2 metabolic reaction (test system B), and non-enzymatic degradation.
The LC-RID chromatographic profiles of radioactive metabolites produced in the 2-hr incubation reaction mixtures of the same test systems A, B, and C used to assess the metabolic and non-metabolic elimination rates of EC-18 were compared to the LC-UV chromatographic profiles of the synthetic reference material. […] The relative radioactivity of EC-18 accounted for 42-67% of total radioactivity. […]. The peaks of M4 and M6 were determined in monkeys and humans. M1 was abundantly detected in all species, but it was assumed to be a peak of early elution. The LC-UV chromatograms of reaction mixtures in each test system (FIGS. 65A-65C) and the relative radioactivity of the screened metabolites are shown in Table 25.

CYP2D6 = CYP2D6 (Homo sapiens, UniProt P10635); test: CYP enzyme inhibition in human liver microsomes, CYP2D6
From the text: (§1) CYP1A2, CYP2C9, CYP2C19, CYP2D6, and CYP3A4 are the CYP subfamily, which plays a critical role in the metabolism of most drugs.

CYP3A4 = CYP3A4 (Homo sapiens, UniProt P08684); test: CYP enzyme inhibition in human liver microsomes, CYP3A4
From the text: as §1

Beagle dog [3] = test: Single-dose toxicity, Beagle dog; format: in vivo; conditions: Oral, Days 1, 5, 9, 13
From the text: (§2) Various toxicology studies have been performed. All studies were GLP-compliant unless otherwise noted.

[4] = Repeated dose toxicity, Beagle dog; format: in vivo; conditions: Beagle, dog, in vivo, Oral
From the text: as §2

Beagle dog [5] = test: Repeated dose toxicity, Beagle dog; format: in vivo; conditions: Oral
From the text: as §2

Balb/c mice, 6.11 Gy TBI = test: Dose optimization / pharmacodynamics study in LD70/30 ARS model (40 mice per group)
[6] = male, SD, rat, Lymph, 500 mg/kg oral
[7] = male, SD, rat, Lymph, 2000 mg/kg oral
[8] = male, SD, rat, Plasma, 500 mg/kg oral
[9] = male, SD, rat, Plasma, 2000 mg/kg oral

Sequence of CYP3A4 (P08684 whole entry): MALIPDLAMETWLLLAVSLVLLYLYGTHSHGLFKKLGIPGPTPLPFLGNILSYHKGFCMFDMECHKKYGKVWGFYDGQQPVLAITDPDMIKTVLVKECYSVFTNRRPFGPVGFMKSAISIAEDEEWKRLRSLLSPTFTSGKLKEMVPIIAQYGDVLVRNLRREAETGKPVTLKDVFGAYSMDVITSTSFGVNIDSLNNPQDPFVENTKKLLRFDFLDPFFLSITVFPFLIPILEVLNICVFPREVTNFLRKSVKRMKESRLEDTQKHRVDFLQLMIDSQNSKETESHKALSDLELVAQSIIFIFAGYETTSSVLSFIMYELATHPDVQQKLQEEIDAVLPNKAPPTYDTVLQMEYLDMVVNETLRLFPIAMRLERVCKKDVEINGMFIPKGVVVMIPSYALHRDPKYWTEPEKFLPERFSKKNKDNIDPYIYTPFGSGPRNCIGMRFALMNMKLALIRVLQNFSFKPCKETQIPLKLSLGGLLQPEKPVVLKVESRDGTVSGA
Sequence of CYP2D6 (P10635 whole entry): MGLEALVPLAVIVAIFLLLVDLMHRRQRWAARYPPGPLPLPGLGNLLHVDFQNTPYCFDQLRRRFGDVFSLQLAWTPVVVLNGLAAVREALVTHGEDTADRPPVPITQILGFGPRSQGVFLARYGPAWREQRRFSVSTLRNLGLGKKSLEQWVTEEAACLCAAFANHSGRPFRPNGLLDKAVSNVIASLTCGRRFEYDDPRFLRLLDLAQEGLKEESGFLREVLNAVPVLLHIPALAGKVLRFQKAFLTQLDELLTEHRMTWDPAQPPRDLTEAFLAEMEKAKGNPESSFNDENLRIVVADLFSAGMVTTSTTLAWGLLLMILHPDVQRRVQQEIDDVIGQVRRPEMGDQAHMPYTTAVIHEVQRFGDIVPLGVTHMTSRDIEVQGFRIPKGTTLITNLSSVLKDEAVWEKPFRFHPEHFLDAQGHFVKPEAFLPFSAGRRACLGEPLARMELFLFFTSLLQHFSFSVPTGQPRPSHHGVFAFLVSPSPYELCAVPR

`CCCCC/C=C\C/C=C\CCCCCCCC(=O)OC(COC(C)=O)COC(=O)CCCCCCCCCCCCCCC` (stereo not shown) [EC-18, 1-palmitoyl-2-linoleoyl-3-acetylglycerol] showed a bioavailability ([1]; male, SD, rat, plasma, 500-2000 mg/kg oral, read-out: mean absolute bioavailability (BA)) of under 0.3%, an AUC(0-t) [1, 6] of 903 ± 272 ng·h/mL and a Cmax [1, 6] of 78.1 ± 34.1 ng/mL. It also gave a Tmax [1, 6] of 3.33 ± 1.15 h, an AUC(0-t) [1, 7] of 2630 ± 1130 ng·h/mL and a Cmax [1, 7] of 245 ± 54.2 ng/mL. For the same molecule, the Tmax [1, 7] was 3 ± 2.65 h, the half-life [1, 7] was 739 ± 305 min and the AUC(0-t) [1, 8] was 6.97 ± 8.2 ng·h/mL. It also gave a Cmax [1, 8] of 6.87 ± 6.12 ng/mL, a Tmax [1, 8] of 0.5 ± 0.5 h and an AUC(0-t) [1, 9] of 44.5 ± 39.5 ng·h/mL. For the same molecule, the Cmax [1, 9] was 12.1 ± 6.66 ng/mL, the Tmax [1, 9] was 1.67 ± 0.58 h and the half-life [1, 9] was 184 ± 52.2 min. For the same molecule, the “time to reach the lymphatic system” value ([1]; single oral) was at most 3 h, the time to absorption ([1]; single oral 500 or 2000 mg/kg) was at most 2 h and the elimination rate ([2]; 1-hr reaction, test system A (Phase 1 metabolic reaction)) was 21.2%. The elimination rate ([2]; 1-hr reaction, test system B (Phase 2 metabolic reaction)) was 25.5%, the elimination rate ([2]; 1-hr reaction, test system C (non-enzymatic degradation)) was 26.5% and the elimination rate ([2]; 2-hr reaction, test system A) was 32.8%. For the same molecule, the elimination rate ([2]; 2-hr reaction, test system B) was 35.4%, the elimination rate ([2]; 2-hr reaction, test system C) was 32.6% and the “Mean Peak Area in LC-RID” value ([2]; A (NADPH added), [14C]EC-18 2 hrs) was 67.2%. The “Mean Peak Area in LC-RID” value ([2]; B (NADPH, PAPS, UDPGA added), 2 hrs) was 64.6%, the “Mean Peak Area in LC-RID” value ([2]; C (no cofactor added), 2 hrs) was 67.4% and the IC50 (CYP2D6) was 67.9 µM. The IC50 (CYP3A4) was 26.8 µM, the Approximate lethal dose (Beagle dog [3]) was “dose: >2000 mg/kg” and the mortality (Beagle dog [3]; 0, 500, 1000, 1500, 2000 mg/kg) was “No dead animals”. For the same molecule, the findings (Beagle dog [3]; up to 2000 mg/kg) was “No specific findings”, the NOAEL at 2 weeks ([4]; 2 weeks) was over 2000 mg/kg/day and the NOAEL at 4 weeks ([4]; 4 weeks (2-week recovery)) was over 2000 mg/kg/day. For the same molecule, the NOAEL at 9 months ([4]; 9 months (4-week recovery)) was 2000 mg/kg/day, the NOAEL at 13 weeks ([4]; 13 weeks (4-week recovery)) was over 2000 mg/kg/day and the mortality (Beagle dog [5]; 2 weeks, 0, 500, 1000, 2000 mg/kg) was “No dead animals”. The findings (Beagle dog [5]; 2 weeks, males and females in 1000 and 2000 mg/kg dose groups) was “Grayish stool observed”, the mortality (Beagle dog [5]; 4 weeks (2-week recovery)) was “No dead animals” and the findings (Beagle dog [5]; 4 weeks (2-week recovery), drug administration groups) was “Grayish stool observed”. For the same molecule, the “findings (soft stool and grayish stool; early diarrhea; no toxicological significance)” value (Beagle dog [5]; 9 months (4-week recovery)) was “Dose-dependent soft”, the mortality (Beagle dog [5]; 9 months (4-week recovery)) was “No dead animals” and the “findings (grayish stool observed)” value (Beagle dog [5]; 13 weeks (4-week recovery)) was “Dose-dependent grayish”. The mortality (Beagle dog [5]; 13 weeks (4-week recovery)) was “No dead animals”, the “improvement in survival vs control group” value (Balb/c mice, 6.11 Gy TBI; 25 mg/kg (so in the source)) was 2 fold and the “improvement in survival vs control group” value (Balb/c mice, 6.11 Gy TBI; 250 mg/kg daily, 24-hr delayed) was 4 fold. The “γ-radiation-induced reduction of RBC and hemoglobin” value (Balb/c mice, 6.11 Gy TBI; 250 mg/kg, 30 days of observation) was “significantly prevented”, the “mean PLT count vs control cohort” value (Balb/c mice, 6.11 Gy TBI; 250 mg/kg, from 15 days to the last day of observation) was “higher” and the “improvement in survival vs control group” value (Balb/c mice, 6.11 Gy TBI; 500 mg/kg daily, 24-hr delayed) was about 4 fold. The “Survival time of decedents, Median” value (Balb/c mice, 6.11 Gy TBI; 6.11 Gy, EC-18 50 mg/kg) was 25.5 days.
